Laboratory results reported in patent publication US4341798A, “Amide derivatives of p-isobutyl-phenyl-propionic acids and related pharmaceutical compositions” (Laboratori Prophin S.p.A., priority 1980, dated 1982).
Where “and” joins values, the source holds several entries; their conditions need not be identical. Equal entries are not always repeated. Where two headings read alike, the source gives them in different places.

What was measured:
[1] = (B) Inhibition of the arthritis induced by Freund adjuvant in the rat; type: in vivo
Source text: (B) Inhibition of the arthritis induced by Freund adjuvant in the rat. (Newbould B.B. Brit. Journ. of Pharmacol. 21,127, 1963).

Solubility = type: physicochemical
[2] = (C) Analgesic activity on the stretching induced by acetic acid in the mouse; type: in vivo
Source text: (C) Analgesic activity on the "stretching" induced by acetic acid in the mouse.
(Fennessy M. R., Lee C. R. "Methods in Narcotic Research" Eds. Ehrenpreise Neidle Dekker--New York 1975).

[3] = (D) Analgesic activity in the Flinch-jump test in the rat; type: in vivo
Source text: (D) Analgesic activity in the Flinch-jump test in the rat.
(Turner R. A. "Screening methods in Pharmacology" Accademic Press--New York 1965).

[4] = Oedema induced by kaolin in the rat (chronic inflammation); type: in vivo; conditions: 100 mg/kg p.o., controls 13
Source text: (§1) The anti-inflammatory activity has been tested by the classic tests of the oedema induced by kaolin and egg white, which repeat two significant and different phases in the pathogenesis of the inflammatory process.
(§2) The kaolin, injected in the tibio-tarsal connection of the rat, gives place to a chronic inflammation, whereas the egg white, injected in the subplantar area of the rat, causes an acute inflammatory state.

[5] = Acute toxicity by oral route in the rat; type: in vivo
in vivo [6] = conditions: rat
[7] = Oedema induced by egg white in the rat (acute inflammation); type: in vivo; conditions: 100 mg/kg p.o., controls 20
Source text: as §1, §2

[8] = Therapeutical indexes (TD50 of 28 day subacute toxicity versus ED50 of tests A-D); type: in vivo; conditions: TD50 (28 days) versus ED50 of tests A-D
[9] = Teratogenic or embryotoxic action in the rabbit; type: in vivo
[10] = rat
[11] = for Mortality in 28 days: male and female rats
[12] = (A) Inhibition of the oedema induced by carragenin in the rat paw; type: in vivo; conditions: for ED50: rat paw
Source text: (A) Inhibition of the oedema induced by carragenin in the […]. Arch. Int. Pharmacodyn. 99,474. 1954). […] The subject oedema was induced in the rat and in the control animals caused a volume increase of the paw by 57.55%.

[13] = Teratogenic or embryotoxic action in the mouse; type: in vivo
[14] = Acute toxicity by intraperitoneal route in the mouse; conditions: in vivo, ip
in vivo [15] = conditions: rat, ip
[16] = Acute toxicity per os in the mouse; type: in vivo
Source text: The compounds of the invention have been subjected to pharmacological tests, showing that they have a modeste or even negligible toxicity.

[17] = rat, molar basis, read-out: ED50, Freund adjuvant arthritis (molar basis)
[18] = mouse, molar basis, read-out: ED50, stretching induced by acetic acid (molar basis)
[19] = mouse, read-out: ED50, stretching induced by acetic acid
[20] = Flinch-jump test, rat, read-out: ED50, dose causing a 50% increase of the algogenic stimulus
[21] = rat, molar basis, read-out: ED50, Flinch-jump test (molar basis)
[22] = molecular weight taken into consideration, read-out: ED50, inhibition of carragenin oedema (molar basis)
[23] = read-out: ED50, inhibition of carragenin oedema

Compound: CC(C)Cc1ccc(C(C)C(=O)Nc2cccc(C(F)(F)F)c2)cc1 (stereo not shown) [BT-03, p-isobutyl-phenyl-propionamide of metatrifluorotoluidine]
- ED50 ([1]; Freund adjuvant, rat, read-out: ED50, dose which causes the volume increase of the paw to be reduced by 50%): 87 mg/kg
- activity with respect to Ibuprofen ([1]; proportionally to the administered doses): superior as regards the activity and of lower toxicity with respect to Ibuprofen
- inhibition of lesions directly induced by Freund adjuvant in the injected paw ([1]; rat): inhibit the lesions directly induced by the Freund adjuvant in the injected paw
- inhibition of the development of secundary lesions ([1]; rat): capable of inhibiting the development of the secundary lesions
- ED50 [1, 17]: 250 µmol/kg
- solubility (Solubility): insoluble in water and soluble in most organic solvents
- times more active than Ibuprofen ([2]; molar basis): about 1,4 times
- inhibition of stretching ([2]; mouse): does inhibit the stretching induced by acetic acid proportionally to the administered dose
- ED50 [2, 18]: 350 µmol/kg
- ED50 [2, 19]: 123 mg/kg
- ED50 [3, 20]: 129 mg/kg
- activity, times greater than that of the reference substance (Ibuprofen) ([3]; molar basis): about 1.4 times
- increase of the algogenic threshold ([3]; rat): increase of the algogenic threshold, proportionally to the administered dose
- ED50 [3, 21]: 370 µmol/kg
- Kaolin test increase % [4]: 7 ± 5.5%
- acute toxicity ([5]; both by oral and by intraperitoneal route): very low acute toxicity
- LD50 ([5]; rat, in vivo, po, 4000 mg/kg): > 4000 mg/kg
- TD50 at 672 h (in vivo [6]): 660 µmol/kg
- Egg white test increase % [7]: 10 ± 5.1%
- therapeutical index compared with Ibuprofen [8]: A constant advantage
- teratogenic or embryotoxic action [9]: have not demonstrated any teratogenic or embryotoxic action
- Mortality after 7 days ([10]; in vivo): 1/6 and 5/6 and 6/6
- animals died during the test period ([11]; rat, in vivo, 200 mg/kg): two
- times less active than Naproxene ([12]; molar basis): about 1.4 times
- times more active than Ibuprofen ([12]; molar basis): 2.8 times
- ED50 [12, 22]: 290 µmol/kg
- ED50 [12, 23]: 103 mg/kg
- teratogenic or embryotoxic action [13]: have not demonstrated any teratogenic or embryotoxic action
- LD50 ([14]; female mice): 1190 mg/kg
- LD50 ([14]; male mice): 940 mg/kg
- LD50 (in vivo [15]; LD50 by intraperitoneal route in the rat, female rats): 1760 mg/kg
- LD50 (in vivo [15]; LD50 by intraperitoneal route in the rat, male rats): 1620 mg/kg
- LD50 (in vivo [15]; LD50 ± f.l. (P 0,05), intraperitoneal, f.l. = fiduciary limits): 1200 ± 264 mg/kg
- LD50 by oral route in the mouse [16]: has not permitted as well to determine any LD50 value

Compound: CC(C)Cc1ccc(C(C)C(=O)O)cc1 (stereo not shown) [Ibuprofen, p-isobutyl-phenyl-propionic acid]
- ED50 [1, 17]: 300 µmol/kg
- ED50 [2, 18]: 500 µmol/kg
- ED50 [2, 19]: 105 mg/kg
- ED50 [3, 20]: 108 mg/kg
- ED50 [3, 21]: 520 µmol/kg
- TD50 at 672 h (in vivo [6]): 590 µmol/kg
- Mortality after 7 days ([10]; 250 mg/kg intraperitoneal): 0/6
- Mortality after 7 days ([10]; 360 mg/kg intraperitoneal): 2/6
- Mortality after 7 days ([10]; 520 mg/kg intraperitoneal): 5/6
- Mortality after 7 days ([10]; 750 mg/kg intraperitoneal): 6/6
- Mortality in 28 days ([11]; 25 mg/kg): 0/10
- Mortality in 28 days ([11]; 50 mg/kg): 3/10
- Mortality in 28 days ([11]; 100 mg/kg): 4/10
- Mortality in 28 days ([11]; 200 mg/kg): 5/10
- ED50 [12, 22]: 820 µmol/kg
- ED50 [12, 23]: 170 mg/kg

Compound: COc1ccc2cc([C@H](C)C(=O)O)ccc2c1 [Naproxene, d-2(6'-methoxy-2'-naphtyl)-propionic acid]
- Mortality in 28 days ([11]; 25 mg/kg): 2/10
- Mortality in 28 days ([11]; 50 mg/kg): 6/10
- Mortality in 28 days ([11]; 100 mg/kg): 10/10
- ED50 [12, 22]: 210 µmol/kg
- ED50 [12, 23]: 47.9 mg/kg

Compound: CC(C)Cc1ccc(C(C)C(=O)NC(CCC(=O)O)C(=O)O)cc1 (stereo not shown) [glutamic amide of the p-isobutyl-phenyl-propionic acid]
- solubility (Solubility): not soluble in water, diluted HCl and cyclohexane

Compound: lysinamide of p-isobutyl-phenyl-propionic acid
- Kaolin test increase % [4]: 7.1 ± 5.3%
- Egg white test increase % [7]: 11 ± 5.6%
